Measurements published in patent US8404708B2, “Dual NK1/NK3 receptor antagonists” (Hoffmann-La Roche Inc., priority 2004, dated 2013).
pKi: −log10 of the molar value. Like-named read-outs stand apart in the source and are kept apart here.

Tests used:
[1] = molecular target: T1, Recombinant human NK3 (hNK3) receptor (Homo sapiens, UniProt P29371); test: NK3 receptor binding, [3H]SR142801 displacement, membrane preparations; settings: for Ki: second value of the cell NK1/NK3, read-out: pKi NK3 (converted); for pKi: second value of the cell pKi NK1/NK3, hNK3 receptor, [3H]SR142801
T1 construct: expressed in transfected cells
T1 sequence (P29371 1-465): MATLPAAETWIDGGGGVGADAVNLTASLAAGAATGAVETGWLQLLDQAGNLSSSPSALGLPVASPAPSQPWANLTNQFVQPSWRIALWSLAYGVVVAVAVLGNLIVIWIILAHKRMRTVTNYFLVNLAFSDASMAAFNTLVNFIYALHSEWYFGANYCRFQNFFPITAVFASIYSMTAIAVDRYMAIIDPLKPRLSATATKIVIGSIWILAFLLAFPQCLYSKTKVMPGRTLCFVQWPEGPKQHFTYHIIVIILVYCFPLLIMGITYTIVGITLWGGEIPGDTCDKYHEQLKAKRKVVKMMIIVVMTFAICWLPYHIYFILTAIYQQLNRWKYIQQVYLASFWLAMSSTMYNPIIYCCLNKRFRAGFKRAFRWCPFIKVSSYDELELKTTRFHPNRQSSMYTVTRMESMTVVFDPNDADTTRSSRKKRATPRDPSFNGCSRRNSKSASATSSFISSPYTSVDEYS
Method in brief: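 Incubation ran 90 min at room temperature in 50 mM Tris-HCl pH 7.4 with 0.1% BSA, 4 mM MnCl2 and 1 μM phosphoramidon, using about 2.5 μg hNK3 membrane protein per well. Nonspecific binding was defined with 10 μM SB222200, and bound radioactivity was collected on PEI-soaked GF/C filters for scintillation counting.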

human NK1 receptor = human NK1 receptor (Homo sapiens, UniProt P25103); test: NK1 receptor binding, [3H]substance P displacement, CHO cell membranes; settings: for Ki: first value of the cell NK1/NK3, read-out: pKi NK1 (converted); for pKi: first value of the cell pKi NK1/NK3, human NK1 receptor, [3H]substance P
Sequence of human NK1 receptor (P25103 whole entry): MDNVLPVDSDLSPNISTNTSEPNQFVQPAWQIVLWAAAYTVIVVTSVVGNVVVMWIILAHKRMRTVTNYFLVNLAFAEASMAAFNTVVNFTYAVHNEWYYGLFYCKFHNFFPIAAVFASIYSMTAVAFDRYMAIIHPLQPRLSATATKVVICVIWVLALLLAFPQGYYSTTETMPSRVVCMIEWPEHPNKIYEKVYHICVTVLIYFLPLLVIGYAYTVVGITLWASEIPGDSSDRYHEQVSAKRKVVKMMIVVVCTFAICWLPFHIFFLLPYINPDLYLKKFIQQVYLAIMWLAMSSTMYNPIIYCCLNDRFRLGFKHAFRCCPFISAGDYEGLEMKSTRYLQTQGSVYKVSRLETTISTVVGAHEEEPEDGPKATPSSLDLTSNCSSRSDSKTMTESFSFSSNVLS

Structure (SMILES)	Ki [1] [nM]	Ki (human NK1 receptor) [nM]	pKi [1]	pKi (human NK1 receptor)
Cc1ccccc1-c1cc(N2CC[C@H](O)[C@H]2CO)ncc1N(C)C(=O)C(C)(C)c1cc(C(F)(F)F)cc(C(F)(F)F)c1 [Example 261, (2R,3S)-2-(3,5-Bis-trifluoromethyl-phenyl)-N-[6-(3-hydroxy-2-hydroxymethyl-pyrrolidin-1-yl)-4-o-tolyl-pyridin-3-yl]-N-methyl-isobutyramide]	0.912	1.29	–	–
CCC(O)CNc1cc(-c2ccccc2Cl)c(N(C)C(=O)C(C)(C)c2cc(C(F)(F)F)cc(C(F)(F)F)c2)cn1 (centres unmarked) [Example 76, 2-(3,5-Bis-trifluoromethyl-phenyl)-N-[4-(2-chloro-phenyl)-6-(2-hydroxy-butylamino)-pyridin-3-yl]-N-methyl-isobutyramide]	–	–	7.97	8.80
CN(C(=O)C(C)(C)c1cc(C(F)(F)F)cc(C(F)(F)F)c1)c1cnc(N(CCO)CCO)cc1-c1ccccc1Br [Example 134, N-[6-[Bis-(2-hydroxy-ethyl)-amino]-4-(2-bromo-phenyl)-pyridin-3-yl]-2-(3,5-bis-trifluoromethyl-phenyl)-N-methyl-isobutyramide]	–	–	8.66	8.65
Cc1cc(F)ccc1-c1cc(N2CC[C@H](O)C2)ncc1N(C)C(=O)C(C)(C)c1cc(C(F)(F)F)cc(C(F)(F)F)c1 [Example 109, (S)-2-(3,5-Bis-trifluoromethyl-phenyl)-N-[4-(4-fluoro-2-methyl-phenyl)-6-(3-hydroxy-pyrrolidin-1-yl)-pyridin-3-yl]-N-methyl-isobutyramide]	–	–	7.87	8.69
Cc1cc(F)ccc1-c1cc(N2CCC[C@H]2CO)ncc1N(C)C(=O)C(C)(C)c1cc(C(F)(F)F)cc(C(F)(F)F)c1 [Example 165, (S)-2-(3,5-Bis-trifluoromethyl-phenyl)-N-[4-(4-fluoro-2-methyl-phenyl)-6-(2-hydroxymethyl-pyrrolidin-1-yl)-pyridin-3-yl]-N-methyl-isobutyramide]	–	–	8.96	8.68
Cc1cc(F)ccc1-c1cc(N2CCC[C@H]2COC(=O)N(C)C)ncc1N(C)C(=O)C(C)(C)c1cc(C(F)(F)F)cc(C(F)(F)F)c1 [Example 303, (S)-Dimethyl-carbamic Acid 1-[5-{[2-(3,5-bis-trifluoromethyl-phenyl)-2-methyl-propionyl]-methyl-amino}-4-(4-fluoro-2-methyl-phenyl)-pyridin-2-yl]-pyrrolidin-2-ylmethyl Ester]	15.1	1.32	–	–
CN(C(=O)C(C)(C)c1cc(C(F)(F)F)cc(C(F)(F)F)c1)c1cnc(N2CCC(O)CC2)cc1-c1ccccc1Cl [Example 51, 2-(3,5-bis-trifluoromethyl-phenyl)-N-[4′-(2-chloro-phenyl)-4-hydroxy-3,4,5,6-tetrahydro-2H-[1,2′]bipyridinyl-5′-yl]-N-methyl-isobutyramide]	–	–	7.54	9.19
Cc1ccc(-c2cc(N3C[C@H](O)C[C@H]3CO)ncc2N(C)C(=O)C(C)(C)c2cc(C(F)(F)F)cc(C(F)(F)F)c2)cc1 [Example 200, (2S,4R)-2-(3,5-Bis-trifluoromethyl-phenyl)-N-[6-(4-hydroxy-2-hydroxymethyl-pyrrolidin-1-yl)-4-p-tolyl-pyridin-3-yl]-N-methyl-isobutyramide]	–	–	7.74	8.63
Cc1ccc(F)cc1-c1cc(N(CCO)CCO)ncc1N(C)C(=O)C(C)(C)c1cc(C(F)(F)F)cc(C(F)(F)F)c1 [Example 128, N-[6-[Bis-(2-hydroxy-ethyl)-amino]-4-(5-fluoro-2-methyl-phenyl)-pyridin-3-yl]-2-(3,5-bis-trifluoromethyl-phenyl)-N-methyl-isobutyramide]	–	–	8.25	8.58
CN(C(=O)C(C)(C)c1cc(C(F)(F)F)cc(C(F)(F)F)c1)c1cnc(N2CC[C@H](O)C[C@@H]2CO)cc1-c1ccccc1Cl (racemic) [Example 189, (2RS,4SR)-2-(3,5-Bis-trifluoromethyl-phenyl)-N-[4′-(2-chloro-phenyl)-4-hydroxy-2-hydroxymethyl-3,4,5,6-tetrahydro-2H-[1,2′]bipyridinyl-5′-yl]-N-methyl-isobutyramide]	–	–	8.40	8.82

More lines, now with the values ahead:

Ki [1] [nM]	Ki (human NK1 receptor) [nM]	pKi [1]	pKi (human NK1 receptor)	Structure (SMILES)
1.38	1.1	–	–	Cc1ccc(F)cc1-c1cc(N2C[C@H](O)C[C@H]2CO)ncc1N(C)C(=O)C(C)(C)c1cc(C(F)(F)F)cc(C(F)(F)F)c1 [Example 227, (2S,4R)-2-(3,5-Bis-trifluoromethyl-phenyl)-N-[4-(5-fluoro-2-methyl-phenyl)-6-(4-hydroxy-2-hydroxymethyl-pyrrolidin-1-yl)-pyridin-3-yl]-N-methyl-isobutyramide]
–	–	8.52	8.93	Cc1cc(C)cc(C(C)(C)C(=O)N(C)c2cnc(N3C[C@H](O)C[C@H]3CO)cc2-c2ccc(F)cc2C)c1 [Example 33, (2S,4R)-2-(3,5-Dimethyl-phenyl)-N-[4-(4-fluoro-2-methyl-phenyl)-6-(4-hydroxy-2-hydroxymethyl-pyrrolidin-1-yl)-pyridin-3-yl]-N-methyl-isobutyramide]
2.24	3.09	–	–	CN(C(=O)C(C)(C)c1cc(C(F)(F)F)cc(C(F)(F)F)c1)c1cnc(N2CCC[C@H]2CO)cc1-c1ccccc1F [Example 282, (S)-2-(3,5-Bis-trifluoromethyl-phenyl)-N-[4-(2-fluoro-phenyl)-6-(2-hydroxymethyl-pyrrolidin-1-yl)-pyridin-3-yl]-N-methyl-isobutyramide]
–	–	8.11	8.60	CN(C(=O)C(C)(C)c1cc(C(F)(F)F)cc(C(F)(F)F)c1)c1cnc(NC[C@@H](O)CO)cc1-c1ccccc1Cl [Example 126, (R)-2-(3,5-Bis-trifluoromethyl-phenyl)-N-[4-(2-chloro-phenyl)-6-(2,3-dihydroxy-propylamino)-pyridin-3-yl]-N-methyl-isobutyramide]
–	–	8.80	8.60	Cc1cc(F)ccc1-c1cc(N2CC=C[C@H]2CO)ncc1N(C)C(=O)C(C)(C)c1cc(C(F)(F)F)cc(C(F)(F)F)c1 [Example 157, (S)-2-(3,5-Bis-trifluoromethyl-phenyl)-N-[4-(4-fluoro-2-methyl-phenyl)-6-(2-hydroxymethyl-2,5-dihydro-pyrrol-1-yl)-pyridin-3-yl]-N-methyl-isobutyramide]
–	–	8.64	8.78	CN(C(=O)C(C)(C)c1cc(C(F)(F)F)cc(C(F)(F)F)c1)c1cnc(N2CC[C@H](O)[C@H]2CO)cc1-c1ccccc1Br [Example 130, (2R,3S)-2-(3,5-Bis-trifluoromethyl-phenyl)-N-[4-(2-bromo-phenyl)-6-(3-hydroxy-2-hydroxymethyl-pyrrolidin-1-yl)-pyridin-3-yl]-N-methyl-isobutyramide]
–	–	8.67	8.79	Cc1ccccc1-c1cc(N2CCOC[C@H]2CO)ncc1N(C)C(=O)C(C)(C)c1cc(C(F)(F)F)cc(C(F)(F)F)c1 [Example 175]
–	–	8.10	9.08	C[C@H](O)[C@@H](CO)Nc1cc(-c2ccccc2Cl)c(N(C)C(=O)C(C)(C)c2cc(C(F)(F)F)cc(C(F)(F)F)c2)cn1 [Example 145, (1R,2S)-2-(3,5-Bis-trifluoromethyl-phenyl)-N-[4-(2-chloro-phenyl)-6-(2-hydroxy-1-hydroxymethyl-propylamino)-pyridin-3-yl]-N-methyl-isobutyramide]
–	–	8.60	8.93	COc1cc(Cl)cc(C(C)(C)C(=O)N(C)c2cnc(N3C[C@H](O)C[C@H]3CO)cc2-c2ccccc2C)c1 [Example 18, (2S,4R)-2-(3-Chloro-5-methoxy-phenyl)-N-[6-(4-hydroxy-2-hydroxymethyl-pyrrolidin-1-yl)-4-o-tolyl-pyridin-3-yl]-N-methyl-isobutyramide]
9.77	7.94	–	–	CN(C(=O)C(C)(C)c1cc(C(F)(F)F)cc(C(F)(F)F)c1)c1cnc(N2CC[C@H](O)[C@H]2CO)cc1-c1ccccc1C(F)(F)F [Example 262, (2R,3S)-2-(3,5-Bis-trifluoromethyl-phenyl)-N-[6-(3-hydroxy-2-hydroxymethyl-pyrrolidin-1-yl)-4-(2-trifluoromethyl-phenyl)-pyridin-3-yl]-N-methyl-isobutyramide]
–	–	7.95	8.48	CCN(CCO)c1cc(-c2ccccc2Cl)c(N(C)C(=O)C(C)(C)c2cc(C(F)(F)F)cc(C(F)(F)F)c2)cn1 [Example 55, 2-(3,5-Bis-trifluoromethyl-phenyl)-N-{4-(2-chloro-phenyl)-6-[ethyl-(2-hydroxy-ethyl)-amino]-pyridin-3-yl}-N-methyl-isobutyramide]
1.1	2	–	–	CN(C(=O)C(C)(C)c1cc(C(F)(F)F)cc(C(F)(F)F)c1)c1cnc(N2CC[C@H](O)[C@H]2CO)cc1-c1ccc(F)cc1Cl [Example 272, (2R,3S)-2-(3,5-Bis-trifluoromethyl-phenyl)-N-[4-(2-chloro-4-fluoro-phenyl)-6-(3-hydroxy-2-hydroxymethyl-pyrrolidin-1-yl)-pyridin-3-yl]-N-methyl-isobutyramide]
